Each structure is given as a SMILES string. Starred links: 1 amine or outer side, 2 acyl side, 3 side chain; linkers in the order of their positions; H or OH if unused. Positions of bridges follow the written chain, without caps; N, C: chain ends. Non-standard residues stand in square brackets, D forms with d. Residues, ends and D or L forms follow the SMILES beside them. Bip(4'-COOH) = N[C@@H](Cc1ccc(-c2ccc(C(=O)O)cc2)cc1)C(=O)O; Bip(4'-NHAc) = CC(=O)Nc1ccc(-c2ccc(C[C@H](N)C(=O)O)cc2)cc1; Phe(4-(4-pyridyl)) = N[C@@H](Cc1ccc(-c2ccncc2)cc1)C(=O)O; Phe(4-(3-Py)) = N[C@@H](Cc1ccc(-c2cccnc2)cc1)C(=O)O; Pro(trans-4-Ph) = O=C(O)[C@@H]1C[C@@H](c2ccccc2)CN1; Pro(cis-4-Ph) = O=C(O)[C@@H]1C[C@H](c2ccccc2)CN1; Ala(morpholin-4-yl) = N[C@@H](CN1CCOCC1)C(=O)O; Bip = N[C@@H](Cc1ccc(-c2ccccc2)cc1)C(=O)O; X82 = C[C@@]1(C(=O)[*:2])CCN1[*:1]; Hyp = O=C(O)[C@@H]1C[C@@H](O)CN1; 4Pal = N[C@@H](Cc1ccncc1)C(=O)O; Tic = O=C(O)[C@@H]1Cc2ccccc2CN1; Aze = O=C(O)[C@@H]1CCN1; Sar = CNCC(=O)O

16 molecules from patent US20250145665A1, “MACROCYCLIC PEPTIDES USEFUL AS MODULATORS OF TNF ALPHA” (Bristol-Myers Squibb Company, priority 2023, published 2025) can be followed below.

In the experiment the target is TNFα (Homo sapiens, UniProt P01375). The experiment can be described thus: TNF-Induced HEK-Blue Assay. In kind it is cell-based. The conditions noted are these: HEK-Blue-CD40L cells, NF-kB-driven secreted alkaline phosphatase reporter; TNFα 0.5 ng/ml; 18 h; read-out: TNF induced HEK-Blue assay IC50 value.
TNFα, sequence (P01375 77-233 limits assumed): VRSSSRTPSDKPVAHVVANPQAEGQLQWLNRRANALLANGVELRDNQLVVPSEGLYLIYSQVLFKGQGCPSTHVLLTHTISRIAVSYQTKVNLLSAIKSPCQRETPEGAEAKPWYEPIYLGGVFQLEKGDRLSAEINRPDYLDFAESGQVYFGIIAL
The IC50 is the concentration needed to halve the response being measured. As for `CC(C)C[C@@H]1NC(=O)[C@H](Cc2ccc(O)cc2)NC(=O)[C@H](C(C)C)NC(=O)[C@@H]2CCN2C(=O)[C@H](C(C)C)NC(=O)[C@@H](CCCNC(=N)N)NC(=O)[C@H](CC(=O)O)NC(=O)[C@H](Cc2ccc(O)cc2)NC(=O)CN(C)C(=O)[C@H](Cc2ccc(-c3ccccc3)cc2)NC(=O)[C@H](Cc2ccc(-c3ccccc3)cc2)NC(=O)[C@H](CN2CCOCC2)NC(=O)CSC[C@@H](C(=O)NCC(N)=O)NC1=O` [Example 79] ({CH2CO}-[Ala(morpholin-4-yl)][Bip][Bip][Sar]YD[dR]V[Aze]VYLCG-NH2; thioether N-13), the IC50 is less than 0.05 µM.

For the molecule `CC(C)C[C@@H]1NC(=O)[C@H](Cc2ccc(O)cc2)NC(=O)[C@H](C(C)C)NC(=O)[C@@H]2C[C@@H](O)CN2C(=O)[C@H](C(C)C)NC(=O)[C@@H](CCCNC(=N)N)NC(=O)[C@H](CC(=O)O)NC(=O)[C@@H]2CCCN2C(=O)CN(C)C(=O)[C@H](Cc2ccc(-c3ccccc3)cc2)NC(=O)[C@H](Cc2ccc(-c3ccccc3)cc2)NC(=O)[C@H](CN2CCOCC2)NC(=O)CSC[C@@H](C(=O)NCC(N)=O)NC1=O` [Example 80] ({CH2CO}-[Ala(morpholin-4-yl)][Bip][Bip][Sar]PD[dR]V[Hyp]VYLCG-NH2; thioether N-13), the IC50 is 0.2 to 2 µM.

In the case of `CC(C)C[C@@H]1NC(=O)[C@H](Cc2ccc(O)cc2)NC(=O)[C@H](C(C)C)NC(=O)[C@@H]2Cc3ccccc3CN2C(=O)[C@H](C(C)C)NC(=O)[C@@H](CCCNC(=N)N)NC(=O)[C@H](CC(=O)O)NC(=O)[C@@H]2CCCN2C(=O)CN(C)C(=O)[C@H](Cc2ccc(-c3ccccc3)cc2)NC(=O)[C@H](Cc2ccc(-c3ccccc3)cc2)NC(=O)[C@H](CN2CCOCC2)NC(=O)CSC[C@@H](C(=O)NCC(N)=O)NC1=O` [Example 81] ({CH2CO}-[Ala(morpholin-4-yl)][Bip][Bip][Sar]PD[dR]V[Tic]VYLCG-NH2; thioether N-13), the half-maximal inhibitory concentration (IC50) lay within 0.05 to 0.2 µM.

Consider `CC(C)C[C@@H]1NC(=O)[C@H](Cc2ccc(O)cc2)NC(=O)[C@H](C(C)C)NC(=O)[C@@H]2CCN2C(=O)[C@H](C(C)C)NC(=O)[C@@H](CCCNC(=N)N)NC(=O)[C@H](CC(=O)O)NC(=O)[C@@H]2CCCN2C(=O)CN(C)C(=O)[C@H](Cc2ccc(-c3ccccc3)cc2)NC(=O)[C@H](Cc2ccc(-c3ccccc3)cc2)NC(=O)[C@H](CN2CCOCC2)NC(=O)CSC[C@@H](C(=O)NCC(N)=O)NC1=O` [Example 82] ({CH2CO}-[Ala(morpholin-4-yl)][Bip][Bip][Sar]PD[dR]V[Aze]VYLCG-NH2; thioether N-13), for which the IC50 lay in the range of 0.2 to 2 µM.

In the case of `CC(C)C[C@@H]1NC(=O)[C@H](Cc2ccc(O)cc2)NC(=O)[C@H](C(C)C)NC(=O)[C@@H]2CCCN2C(=O)[C@H](CC(N)=O)NC(=O)[C@H](CCCNC(=N)N)NC(=O)[C@H](CC(=O)O)NC(=O)[C@H](Cc2ccc(O)cc2)NC(=O)CN(C)C(=O)[C@H](Cc2ccc(-c3ccccc3)cc2)NC(=O)[C@H](Cc2ccc(-c3ccccc3)cc2)NC(=O)[C@H](CN2CCOCC2)NC(=O)CSC[C@@H](C(=O)NCC(N)=O)NC1=O` [Example 83] ({CH2CO}-[Ala(morpholin-4-yl)][Bip][Bip][Sar]YDRNPVYLCG-NH2; thioether N-13), the IC50 was 0.05 to 0.2 µM.

For `CC(=O)Nc1ccc(-c2ccc(C[C@@H]3NC(=O)[C@H](CN4CCOCC4)NC(=O)CSC[C@@H](C(=O)NCC(N)=O)NC(=O)[C@H](C(C)C)NC(=O)[C@H](CCCNC(=N)N)NC(=O)[C@H](C(C)C)NC(=O)[C@@H]4CCCN4C(=O)[C@H](C(C)C)NC(=O)[C@@H](CCCNC(=N)N)NC(=O)[C@H](CC(=O)O)NC(=O)[C@@H]4CCCN4C(=O)CN(C)C(=O)[C@H](Cc4ccc(-c5ccccc5)cc4)NC3=O)cc2)cc1` [Example 85] ({CH2CO}-[Ala(morpholin-4-yl)][Bip(4'-NHAc)][Bip][Sar]PD[dR]VPVRVCG-NH2; thioether N-13), the IC50 lay within 0.2 to 2 µM.

Consider `CC(C)[C@@H]1NC(=O)[C@H](CCCNC(=N)N)NC(=O)[C@H](C(C)C)NC(=O)[C@@H]2CCCN2C(=O)[C@H](C(C)C)NC(=O)[C@H](CCCNC(=N)N)NC(=O)[C@H](CC(=O)O)NC(=O)[C@@H]2CCCN2C(=O)CN(C)C(=O)[C@H](Cc2ccc(-c3ccccc3)cc2)NC(=O)[C@H](Cc2ccncc2)NC(=O)[C@H](CN2CCOCC2)NC(=O)CSC[C@@H](C(=O)NCC(N)=O)NC1=O` [Example 86] ({CH2CO}-[Ala(morpholin-4-yl)][4Pal][Bip][Sar]PDRVPVRVCG-NH2; thioether N-13), for which the IC50 fell in the range of 0.05 to 0.2 µM.

For `CC(C)[C@@H]1NC(=O)[C@H](CCCNC(=N)N)NC(=O)[C@H](C(C)C)NC(=O)[C@@H]2CCCN2C(=O)[C@H](C(C)C)NC(=O)[C@H](CCCNC(=N)N)NC(=O)[C@H](CC(=O)O)NC(=O)[C@@H]2CCCN2C(=O)CN(C)C(=O)[C@H](Cc2ccc(-c3ccccc3)cc2)NC(=O)[C@H](Cc2ccc(-c3ccncc3)cc2)NC(=O)[C@H](CN2CCOCC2)NC(=O)CSC[C@@H](C(=O)NCC(N)=O)NC1=O` [Example 87] ({CH2CO}-[Ala(morpholin-4-yl)][Phe(4-(4-pyridyl))][Bip][Sar]PDRVPVRVCG-NH2; thioether N-13), the concentration for half-maximal inhibition (IC50) was in the range of 0.05 to 0.2 µM.

In the case of `CC(C)[C@@H]1NC(=O)[C@H](CCCNC(=N)N)NC(=O)[C@H](C(C)C)NC(=O)[C@@H]2CCCN2C(=O)[C@H](C(C)C)NC(=O)[C@H](CCCNC(=N)N)NC(=O)[C@H](CC(=O)O)NC(=O)[C@@H]2CCCN2C(=O)CN(C)C(=O)[C@H](Cc2ccc(-c3ccccc3)cc2)NC(=O)[C@H](Cc2ccc(-c3cccnc3)cc2)NC(=O)[C@H](CN2CCOCC2)NC(=O)CSC[C@@H](C(=O)NCC(N)=O)NC1=O` [Example 88] ({CH2CO}-[Ala(morpholin-4-yl)][Phe(4-(3-Py))][Bip][Sar]PDRVPVRVCG-NH2; thioether N-13), the IC50 is 0.2 to 2 µM.

For the molecule `CC(=O)Nc1ccc(-c2ccc(C[C@@H]3NC(=O)[C@H](Cc4ccc(-c5ccccc5)cc4)NC(=O)[C@H](CN4CCOCC4)NC(=O)CSC[C@@H](C(=O)NCC(N)=O)NC(=O)[C@H](C(C)C)NC(=O)[C@H](CCCNC(=N)N)NC(=O)[C@H](C(C)C)NC(=O)[C@@H]4CCCN4C(=O)[C@H](C(C)C)NC(=O)[C@H](CCCNC(=N)N)NC(=O)[C@H](CC(=O)O)NC(=O)[C@@H]4CCCN4C(=O)CN(C)C3=O)cc2)cc1` [Example 89] ({CH2CO}-[Ala(morpholin-4-yl)][Bip][Bip(4'-NHAc)][Sar]PDRVPVRVCG-NH2; thioether N-13), the IC50 lay in the range of 0.05 to 0.2 µM.

For `CC(C)[C@@H]1NC(=O)[C@H](CCCNC(=N)N)NC(=O)[C@H](C(C)C)NC(=O)[C@@H]2CCCN2C(=O)[C@H](C(C)C)NC(=O)[C@H](CCCNC(=N)N)NC(=O)[C@H](CC(=O)O)NC(=O)[C@@H]2CCCN2C(=O)CN(C)C(=O)[C@H](Cc2ccc(-c3ccc(C(=O)O)cc3)cc2)NC(=O)[C@H](Cc2ccc(-c3ccccc3)cc2)NC(=O)[C@H](CN2CCOCC2)NC(=O)CSC[C@@H](C(=O)NCC(N)=O)NC1=O` [Example 90] ({CH2CO}-[Ala(morpholin-4-yl)][Bip][Bip(4'-COOH)][Sar]PDRVPVRVCG-NH2; thioether N-13), the 50% inhibitory concentration (IC50) is 0.05 to 0.2 µM.

Regarding `CC(C)[C@@H]1NC(=O)[C@H](CCCNC(=N)N)NC(=O)[C@H](C(C)C)NC(=O)[C@@H]2CCCN2C(=O)[C@H](C(C)C)NC(=O)[C@H](CCCNC(=N)N)NC(=O)[C@H](CC(=O)O)NC(=O)[C@@H]2CCCN2C(=O)CN(C)C(=O)[C@H](Cc2ccc(-c3ccncc3)cc2)NC(=O)[C@H](Cc2ccc(-c3ccccc3)cc2)NC(=O)[C@H](CN2CCOCC2)NC(=O)CSC[C@@H](C(=O)NCC(N)=O)NC1=O` [Example 91] ({CH2CO}-[Ala(morpholin-4-yl)][Bip][Phe(4-(4-pyridyl))][Sar]PDRVPVRVCG-NH2; thioether N-13), the half-inhibitory concentration (IC50) lay in the range of 0.2 to 2 µM.

Regarding `CC(C)[C@@H]1NC(=O)[C@H](CCCNC(=N)N)NC(=O)[C@H](C(C)C)NC(=O)[C@@H]2CCCN2C(=O)[C@H](C(C)C)NC(=O)[C@H](CCCNC(=N)N)NC(=O)[C@H](CC(=O)O)NC(=O)[C@@H]2CCCN2C(=O)CN(C)C(=O)[C@H](Cc2ccc(-c3cccnc3)cc2)NC(=O)[C@H](Cc2ccc(-c3ccccc3)cc2)NC(=O)[C@H](CN2CCOCC2)NC(=O)CSC[C@@H](C(=O)NCC(N)=O)NC1=O` [Example 92] ({CH2CO}-[Ala(morpholin-4-yl)][Bip][Phe(4-(3-Py))][Sar]PDRVPVRVCG-NH2; thioether N-13), the IC50 lay in the range of 0.2 to 2 µM.

On to `CC(C)C[C@@H]1NC(=O)[C@H](Cc2ccc(O)cc2)NC(=O)[C@H](C(C)C)NC(=O)[C@]2(C)CCN2C(=O)[C@H](C(C)C)NC(=O)[C@H](CCCNC(=N)N)NC(=O)[C@H](CC(=O)O)NC(=O)[C@H](Cc2ccc(O)cc2)NC(=O)CN(C)C(=O)[C@H](Cc2ccc(-c3ccccc3)cc2)NC(=O)[C@H](Cc2ccc(-c3ccccc3)cc2)NC(=O)[C@H](CN2CCOCC2)NC(=O)CSC[C@@H](C(=O)NCC(N)=O)NC1=O` [Example 93] ({CH2CO}-[Ala(morpholin-4-yl)][Bip][Bip][Sar]YDRV[X82]VYLCG-NH2; thioether N-13), for which the IC50 lay in the range of 0.05 to 0.2 µM.

With `CC(C)C[C@@H]1NC(=O)[C@H](Cc2ccc(O)cc2)NC(=O)[C@H](C(C)C)NC(=O)[C@@H]2CCCN2C(=O)[C@H](C(C)C)NC(=O)[C@H](CCCNC(=N)N)NC(=O)[C@H](CC(=O)O)NC(=O)[C@@H]2C[C@H](c3ccccc3)CN2C(=O)CN(C)C(=O)[C@H](Cc2ccc(-c3ccccc3)cc2)NC(=O)[C@H](Cc2ccc(-c3ccccc3)cc2)NC(=O)[C@H](CN2CCOCC2)NC(=O)CSC[C@@H](C(=O)NCC(N)=O)NC1=O` [Example 94] ({CH2CO}-[Ala(morpholin-4-yl)][Bip][Bip][Sar][Pro(cis-4-Ph)]DRVPVYLCG-NH2; thioether N-13), the IC50 fell in the range of 0.05 to 0.2 µM.

As for `CC(C)C[C@@H]1NC(=O)[C@H](Cc2ccc(O)cc2)NC(=O)[C@H](C(C)C)NC(=O)[C@@H]2CCCN2C(=O)[C@H](C(C)C)NC(=O)[C@H](CCCNC(=N)N)NC(=O)[C@H](CC(=O)O)NC(=O)[C@@H]2C[C@@H](c3ccccc3)CN2C(=O)CN(C)C(=O)[C@H](Cc2ccc(-c3ccccc3)cc2)NC(=O)[C@H](Cc2ccc(-c3ccccc3)cc2)NC(=O)[C@H](CN2CCOCC2)NC(=O)CSC[C@@H](C(=O)NCC(N)=O)NC1=O` [Example 95] ({CH2CO}-[Ala(morpholin-4-yl)][Bip][Bip][Sar][Pro(trans-4-Ph)]DRVPVYLCG-NH2; thioether N-13), the concentration for half-maximal inhibition (IC50) lay within 0.2 to 2 µM.
